Columns and labels:
[1] = molecular target: T1, Thyroid hormone receptor alpha (Homo sapiens, UniProt P10827); assay: Binding affinity at human TRalpha1
T1 sequence (P10827 whole entry): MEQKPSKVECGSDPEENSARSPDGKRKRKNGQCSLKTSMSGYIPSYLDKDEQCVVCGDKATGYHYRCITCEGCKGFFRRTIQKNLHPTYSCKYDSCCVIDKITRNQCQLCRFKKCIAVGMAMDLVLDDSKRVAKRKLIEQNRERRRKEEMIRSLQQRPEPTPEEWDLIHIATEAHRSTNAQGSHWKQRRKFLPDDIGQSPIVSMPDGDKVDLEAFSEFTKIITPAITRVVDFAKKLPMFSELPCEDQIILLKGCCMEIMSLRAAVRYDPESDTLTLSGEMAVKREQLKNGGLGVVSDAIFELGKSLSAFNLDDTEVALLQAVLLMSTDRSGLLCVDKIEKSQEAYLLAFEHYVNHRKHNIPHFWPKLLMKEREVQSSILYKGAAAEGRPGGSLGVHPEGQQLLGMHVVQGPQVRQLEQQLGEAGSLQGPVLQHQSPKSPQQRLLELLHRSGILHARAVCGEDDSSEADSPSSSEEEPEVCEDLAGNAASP

[2] = molecular target: T2, Thyroid hormone receptor beta (Homo sapiens, UniProt P10828); assay: Binding affinity at human TRbeta1
T2 sequence (P10828 whole entry): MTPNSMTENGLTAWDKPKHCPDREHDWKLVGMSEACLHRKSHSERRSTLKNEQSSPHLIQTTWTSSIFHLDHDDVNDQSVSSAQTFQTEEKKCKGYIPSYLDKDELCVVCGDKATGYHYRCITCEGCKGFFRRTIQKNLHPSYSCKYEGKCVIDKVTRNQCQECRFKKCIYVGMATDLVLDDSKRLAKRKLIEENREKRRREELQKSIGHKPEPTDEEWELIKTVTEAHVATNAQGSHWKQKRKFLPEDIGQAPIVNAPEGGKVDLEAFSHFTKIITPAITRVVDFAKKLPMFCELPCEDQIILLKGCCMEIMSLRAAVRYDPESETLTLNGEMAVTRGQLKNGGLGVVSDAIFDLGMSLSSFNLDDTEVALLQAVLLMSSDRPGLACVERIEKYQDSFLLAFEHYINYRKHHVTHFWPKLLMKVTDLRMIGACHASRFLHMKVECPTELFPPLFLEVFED

Homo sapiens = species on record: Homo sapiens; assay: Selectivity for human TR-alpha-1 to human TRbeta1

Row | Compound | IC50 [1] [nM] | IC50 [2] [nM] | Ratio IC50 (Homo sapiens)
1 | Nc1cccc(COc2c(Br)cc(CCC(=O)O)cc2Br)c1 | 2600 | 820 | 4.5
2 | Cc1ccccc1COc1c(Br)cc(CCC(=O)O)cc1Br | 1300 | 200 | 3.8
3 | O=C(O)CCc1cc(Br)c(OCc2cccc(Cl)c2)c(Br)c1 | 500 | 190 | 1.5
4 | O=C(O)CCc1cc(Br)c(OCc2cccc(C(F)(F)F)c2)c(Br)c1 | 370 | 160 | 1.4
5 | CCN(CC)c1cccc(COc2c(Br)cc(CCC(=O)O)cc2Br)c1 | 480 | 87 | 3.2
